Entries after “also recorded” stand apart in the source; their conditions may differ. Where no end group is shown, it is not given here.

From US8623832B2, “Peptide compositions that bind TLR-4” (The Board of Regents of the University of Oklahoma, priority 2011, dated 2014) come the findings set out here.

Assay [1] has as its target T1, recombinant TLR4-MD2 protein (Homo sapiens, UniProt O00206).
T1 construct: extracellular domain of human TLR4 protein (Glu 24-Lys 631 amino acids); 10x histidine tag (C); signal peptide from human CD33 (N); purchased R&D Systems, MN; host or cells: mouse myeloma cell line NS0
As to the kind of experiment: Microwell-based binding to immobilized recombinant TLR4-MD2 protein. To be noted: for binding to surface-bound TLR4-MD2 protein: 0.25 μg TLR4-MD2 per well, detected with SP-A-specific antibody. The text has this:
Interaction between purified baboon lung SP-A, SP-A-peptides and TLR4-MD2 proteins using a microwell-based method: The binding between the purified baboon lung SP-A, SP-A-peptides and recombinant TLR4-MD2 and MD2 proteins was studied in vitro using a microwell-based method (Awasthi et al., 2004). The soluble, recombinant TLR4-MD2 protein (R&D Systems, MN) consisted of a mixture of recombinant human-TLR4 and MD2 proteins. The recombinant extracellular domain of human TLR4 protein (Glu 24-Lys 631 amino acids), was joined with a DNA sequence encoding the signal peptide from human CD33 and a 10× histidine tag at the C-terminus (Accession # O00206). For MD2 protein, a DNA sequence encoding the signal peptide from human CD33 was joined with the mature region of human MD-2 (mature region, Glu 17-Asn 160 amino acids) and a 10× histidine tag at the C-terminus (Accession # Q9Y6Y9). The chimeric proteins were expressed in a mouse myeloma cell line, NS0 (R&D Systems, MN). The proteins were obtained from the manufacturer in carrier-free condition and reconstituted in PBS containing 0.1% low-endotoxin BSA (MP Biomedicals, OH). MD2, an adaptor molecule for TLR4, is expressed by immune cells, and is known to bind TLR4 in a non-covalent manner (Jain et al., 2008). Thus, the binding of SP-A to the recombinant MD2 protein (R&D Systems, MN) was also studied.
For the binding assay, microwell ultra-high-protein binding Immunolon 4HBX strips (Thermo Scientific, MA) were coated with soluble recombinant-TLR4-MD2 protein or MD2 protein (R&D Systems, 250 ng per well, diluted in 0.1 M NaHCO3, pH 9.6) overnight at room temperature. The plates were washed three times, and non-specific sites were blocked for 2 h at room temperature using phosphate buffered saline containing 0.1% triton-X 100 and 3% nonfat milk (Buffer A). […] The immune-complex was detected using 3,3′,5,5′-tetramethylbenzidine (TMB) substrate system (Sigma-Aldrich, MO). The reaction was stopped with 2 N H2SO4 and read at 405 and/or 450 nm spectrophotometrically (Molecular Devices, CA).

Assay [2] relates to LPS-induced acute inflammation. In words: Mouse model of LPS-inflammation (endotoxic shock-like symptoms, TNF-α). In kind it is in vivo, Balb/c Mice. To be noted: mice; for LPS-induced clinical symptoms (endotoxic shock-like): LPS 0.1 μg/g body weight i.p., SPA4 2.5 μg/g, SP-A 0.5 μg/g; for LPS-induced circulatory TNF-α amounts: LPS 0.1 μg/g body weight, serum, ELISA; for LPS-induced TNF-α levels in lung tissue homogenates: LPS 1 μg/g or 15 μg/g body weight, treated at 1 hour, sacrificed at 5 hours. How it is done:
In Example 5, the efficacy of SPA4 peptide in inhibiting LPS-induced acute inflammation was investigated in a mouse model of LPS-inflammation. Balb/c Mice were challenged with E. coli 0111:B4 highly purified, low protein-derived LPS (0.1 or 1 or 15 μg/g body wt) via an intraperitoneal route, one hour prior to treatment with SPA4 peptide (2.5 μg/g body weight) or full-length purified SP-A (0.5 μg/g body weight) via an intraperitoneal route. The mice were monitored for endotoxic-shock like clinical symptoms (including, but not limited to, ruffled fur, eye exudates, diarrhea, prostration, and lack of reactivity), and these symptoms were scored on the basis of severity from 0 to 3, and average clinical symptom indices were calculated for each animal based on the symptom grades (Metkar et al., 2007). Endotoxic-shock like clinical symptoms were noted (at 5 or 7 hours), and mice were sacrificed at different time-intervals after LPS challenge. Major organs and blood specimens were collected. Secreted amounts of TNF-α cytokine were measured in serum and lung tissue homogenates by ELISA method.

In the next assay the test system is TLR4. As to the kind of experiment: TLR4 expression in JAWS II dendritic cells by immunocytochemistry / confocal microscopy. In kind it is cell-based, mouse. How it is done:
TLR4 expression by immunocytochemistry: The JAWS II-DCs were seeded at a density of 25,000 cells per well of an 8-well chamber slide (Nalge Nunc international, New York, USA). Post-LPS (100 ng/ml) treatment with SPA4 peptide (1 and 10 μM; SEQ ID NO:3) followed, and the cells were fixed for 20 minutes with 3.5% paraformaldehyde prepared in PBS on ice. Permeablization was carried out for 20 minutes on ice with Alpha-MEM medium containing 10% FBS and 0.05% saponin and 10 mM HEPES (Inaba et al., 1998). The cells were washed with PBS supplemented with 1% FBS and 0.05% saponin (wash buffer). Non-specific binding sites were blocked using PBS containing 10% normal mouse serum (Sigma, St Louis, Mo.) for 1 hour at room temperature in a humidified chamber. A rabbit polyclonal antibody to mouse TLR4 (Abcam, Cambridge, Mass.) was added to the cells at a dilution of 1:50 and incubated overnight at 4° C. in a humidified chamber. […]
SPA4 peptide (SEQ ID NO:3) inhibits the LPS-induced TLR4 expression in dendritic cells and SW480 intestinal (colonic) epithelial cells. […] First, it was determined if the SPA4 peptide inhibits LPS-induced expression of TLR4 in these cells. […]

T1 sequence (O00206 24-631): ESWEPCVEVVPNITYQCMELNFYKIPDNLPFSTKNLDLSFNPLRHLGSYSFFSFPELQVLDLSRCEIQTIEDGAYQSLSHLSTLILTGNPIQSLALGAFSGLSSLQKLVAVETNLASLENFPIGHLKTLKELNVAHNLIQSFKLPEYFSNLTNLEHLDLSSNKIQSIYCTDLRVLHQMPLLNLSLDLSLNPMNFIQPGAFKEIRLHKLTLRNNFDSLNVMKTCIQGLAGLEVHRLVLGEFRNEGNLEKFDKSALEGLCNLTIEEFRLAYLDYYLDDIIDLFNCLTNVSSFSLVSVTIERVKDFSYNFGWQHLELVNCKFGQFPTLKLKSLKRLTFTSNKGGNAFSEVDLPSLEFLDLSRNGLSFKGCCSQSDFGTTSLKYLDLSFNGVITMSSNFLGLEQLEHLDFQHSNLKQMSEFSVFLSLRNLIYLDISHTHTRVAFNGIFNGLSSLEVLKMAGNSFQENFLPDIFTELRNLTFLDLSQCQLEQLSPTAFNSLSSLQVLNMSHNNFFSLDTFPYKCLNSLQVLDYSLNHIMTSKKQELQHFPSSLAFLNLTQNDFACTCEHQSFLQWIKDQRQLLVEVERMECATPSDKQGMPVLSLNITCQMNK
T1 sequence (Q9Y6Y9 17-160 partner limits assumed): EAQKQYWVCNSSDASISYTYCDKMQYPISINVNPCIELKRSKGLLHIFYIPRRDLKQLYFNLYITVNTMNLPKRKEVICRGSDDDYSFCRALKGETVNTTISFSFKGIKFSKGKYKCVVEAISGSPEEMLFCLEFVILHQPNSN

As to “GDFRYSDGTPVNYTNWYRGE [SPA4, GDFRYSDGT PVNYTNWYRGE]”, the “binding to surface-bound TLR4-MD2 protein” value in assay [1] was “binds to TLR4-MD2 protein”. Besides, the “efficiency of binding to TLR4-MD2 protein compared with whole native SP-A protein” value in assay [1] (SPA4 2-20 μg versus SP-A 2-10 μg) is on record as “less efficient”. Also, in assay [2], the “LPS-induced clinical symptoms (endotoxic shock-like)” value is given as “inhibit”, the “LPS-induced circulatory TNF-α amounts” value is recorded as “reduced” and the “LPS-induced TNF-α levels in lung tissue homogenates” value was “reduced”. Moreover, in the assay on TLR4, the “basal TLR4 expression” value was “reduced the basal TLR4 expression”. Further, in the assay on TLR4 (post-LPS treatment, p<0.05), the “LPS-induced TLR4 expression” value is listed as “suppressed significantly; also recorded: reduced LPS-induced TLR4 expression to a basal level”.

For “SP-A: native surfactant protein-A purified from bronchioalveolar lavage fluid of a normal healthy adult baboon (MWLCPLALTLTLMAASGAACEVKDVCVGSPGIPGTPGSHGLPGRDGRDGVKGDPGPP; listed as Papio cynocephalus)”, the “binding to surface-bound TLR4-MD2 protein” value in assay [1] is listed as “showed binding”. Further, in assay [2], the “LPS-induced clinical symptoms (endotoxic shock-like)” value is reported as “inhibit”, the “LPS-induced circulatory TNF-α amounts” value is given as “reduced” and the “LPS-induced TNF-α levels in lung tissue homogenates” value is on record as “low”.
